ChEMBL document CHEMBL3351798, “Discovery of the CCR1 antagonist, BMS-817399, for the treatment of rheumatoid arthritis” (J Med Chem, 2014)

Tests used:
[1] = target: T1, C-C chemokine receptor type 1 (Homo sapiens, UniProt P32246); test: Displacement of [125I]MIP-1alpha from CCR1 in human THP1 cells; type: cell-based, THP-1
T1 sequence (P32246 whole entry): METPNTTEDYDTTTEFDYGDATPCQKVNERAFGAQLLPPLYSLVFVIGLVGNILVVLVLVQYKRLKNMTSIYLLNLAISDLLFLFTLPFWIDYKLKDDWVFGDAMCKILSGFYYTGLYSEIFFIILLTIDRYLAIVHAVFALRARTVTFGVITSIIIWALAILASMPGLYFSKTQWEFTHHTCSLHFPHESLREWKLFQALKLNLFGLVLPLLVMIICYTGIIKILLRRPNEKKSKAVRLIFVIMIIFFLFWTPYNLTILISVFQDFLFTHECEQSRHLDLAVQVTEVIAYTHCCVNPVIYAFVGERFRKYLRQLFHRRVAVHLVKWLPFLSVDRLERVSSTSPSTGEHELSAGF

[2] = target: T2, Nuclear receptor subfamily 1 group I member 2 (Homo sapiens, UniProt O75469); test: Transactivation of human full-length PXR transfected in human HepG2 cells after 24 hrs by luciferase reporter gene assay; type: cell-based; conditions: for EC20: human, hepg2, 24 h
T2 sequence (O75469 whole entry): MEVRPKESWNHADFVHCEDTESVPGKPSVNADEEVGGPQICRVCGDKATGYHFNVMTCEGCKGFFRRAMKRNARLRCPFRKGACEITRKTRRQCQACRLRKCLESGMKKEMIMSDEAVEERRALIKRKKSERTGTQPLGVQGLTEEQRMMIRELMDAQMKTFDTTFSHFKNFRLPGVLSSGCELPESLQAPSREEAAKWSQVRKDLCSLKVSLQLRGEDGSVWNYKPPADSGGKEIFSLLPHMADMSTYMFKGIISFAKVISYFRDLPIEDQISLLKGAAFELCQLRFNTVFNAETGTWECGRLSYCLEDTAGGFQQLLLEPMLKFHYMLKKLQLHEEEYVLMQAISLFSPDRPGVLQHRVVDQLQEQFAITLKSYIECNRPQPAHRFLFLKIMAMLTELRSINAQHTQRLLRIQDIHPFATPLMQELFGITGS

[3] = Metabolic stability in human liver microsomes assessed as compound remaining at 3 uM after 60 mins by UV-LC/MS analysis; type: ADME; conditions: read-out: Stability
[4] = Metabolic stability in rat liver microsomes assessed as compound remaining at 3 uM after 60 mins by UV-LC/MS analysis; type: ADME; conditions: read-out: Stability
[5] = Metabolic stability in mouse liver microsomes assessed as compound remaining at 3 uM after 60 mins by UV-LC/MS analysis; type: ADME; conditions: read-out: Stability
[6] = Metabolic stability in human liver microsomes assessed as compound remaining at 0.5 uM after 60 mins by UV-LC/MS analysis; type: ADME; conditions: read-out: Stability
[7] = Metabolic stability in rat liver microsomes assessed as compound remaining at 0.5 uM after 60 mins by UV-LC/MS analysis; type: ADME; conditions: read-out: Stability
[8] = Metabolic stability in mouse liver microsomes assessed as compound remaining at 0.5 uM after 60 mins by UV-LC/MS analysis; type: ADME; conditions: read-out: Stability

IC50 [1] [nM]	EC50 [2] [nM]	remaining at 1 h, 3 µM [3] [%]	remaining at 1 h, 3 µM [4] [%]	remaining at 1 h, 3 µM [5] [%]	remaining at 1 h, 0.5 µM [6] [%]	remaining at 1 h, 0.5 µM [7] [%]	remaining at 1 h, 0.5 µM [8] [%]	EC20 [2] [nM]	Compound
2	7800	87	79	85	–	–	–	–	CC(C)[C@@H](NC(=O)C[C@@H](C)O)C(=O)N1CC[C@](O)(c2ccc(Cl)cc2)C(C)(C)C1
2	25000	–	–	–	91	35	74	–	CC(C)[C@@H](NC(=O)CCC(C)(C)O)C(=O)N1CC[C@](O)(c2ccc(Cl)cc2)C(C)(C)C1
20	–	–	–	–	–	–	–	–	CC(C)[C@@H](NC(=O)Nc1ccccc1)C(=O)N1CC[C@](O)(c2ccc(Cl)cc2)C(C)(C)C1
2	> 50000	76	75	86	–	–	–	–	CC(C)[C@@H](NC(=O)N[C@@H]1CC[C@H](O)C1)C(=O)N1CC[C@](O)(c2ccc(Cl)cc2)C(C)(C)C1
9	–	2	11	19	–	–	–	800	CC(C)[C@@H](NC(=O)N1CCCC1)C(=O)N1CC[C@](O)(c2ccc(Cl)cc2)C(C)(C)C1
2	> 25000	–	–	–	88	79	95	–	CC(C)[C@@H](NC(=O)NC[C@H](C)O)C(=O)N1CC[C@](O)(c2ccc(Cl)cc2)C(C)(C)C1
11	–	–	–	–	–	–	–	–	CC(C)[C@@H](NC(=O)C[C@H](C)O)C(=O)N1CC[C@](O)(c2ccc(Cl)cc2)C(C)(C)C1
3	5700	99	96	100	–	–	–	–	CC(C)[C@@H](NC(=O)N[C@H]1CC[C@H](O)C1)C(=O)N1CC[C@](O)(c2ccc(Cl)cc2)C(C)(C)C1
1	–	3	1	2	–	–	–	2200	CC(C)[C@@H](NC(=O)NCc1ccccc1)C(=O)N1CC[C@](O)(c2ccc(Cl)cc2)C(C)(C)C1
2	> 25000	–	–	–	88	78	86	–	CC(C)[C@@H](NC(=O)NC[C@@H](C)O)C(=O)N1CC[C@](O)(c2ccc(Cl)cc2)C(C)(C)C1
3	–	59	85	72	–	–	–	5200	CC[C@@H](C)NC(=O)N[C@@H](C(=O)N1CC[C@](O)(c2ccc(Cl)cc2)C(C)(C)C1)C(C)C
2	–	65	89	87	–	–	–	8700	CC[C@H](C)NC(=O)N[C@@H](C(=O)N1CC[C@](O)(c2ccc(Cl)cc2)C(C)(C)C1)C(C)C
3	2300	100	84	100	–	–	–	–	CC(C)[C@@H](NC(=O)CC(C)(C)O)C(=O)N1CC[C@](O)(c2ccc(Cl)cc2)C(C)(C)C1
3	19000	92	83	100	–	–	–	–	CC(C)[C@@H](NC(=O)N[C@H]1CC[C@@H](O)C1)C(=O)N1CC[C@](O)(c2ccc(Cl)cc2)C(C)(C)C1
2	–	77	57	68	–	–	–	7100	CC(C)[C@@H](NC(=O)NC1CCCC1)C(=O)N1CC[C@](O)(c2ccc(Cl)cc2)C(C)(C)C1
4	> 50000	100	84	100	–	–	–	–	CC(C)[C@@H](NC(=O)N[C@@H]1CC[C@@H](O)C1)C(=O)N1CC[C@](O)(c2ccc(Cl)cc2)C(C)(C)C1
